Consider 33 molecules from patent publication US20170325459A1, “BICYCLIC COMPOUNDS AS PEST CONTROL AGENTS” (Bayer CropScience Aktiengesellschaft, priority 2014, published 2017).

The nature of data set [1]: log P by HPLC (OECD Guideline 117), method [a] acidic range pH 2.7. Type of data set: physicochemical. The settings on record: for chromatographic logP: reversed-phase (RP) C18 HPLC column. The procedure:
(§1) The log P values were determined in accordance with OECD Guideline 117 (EC Directive 92/69/EEC) by HPLC (high-performance liquid chromatography) using reversed-phase (RP) columns (C18), by the following methods: [a] The LC-MS determination in the acidic range is carried out at pH 2.7 with 0.1% aqueous formic acid and acetonitrile (contains 0.1% formic acid) as eluents; linear gradient from 10% acetonitrile to 95% acetonitrile. [b] LC-MS determination in the neutral range is effected at pH 7.8 with 0.001 molar aqueous ammonium hydrogencarbonate solution and acetonitrile as eluents; linear gradient from 10% acetonitrile to 95% acetonitrile. Calibration is effected using unbranched alkan-2-ones (having 3 to 16 carbon atoms) with known log P values (log P values determined on the basis of the retention times by linear interpolation between two successive alkanones).

Data set [2] in a line: log P by HPLC (OECD Guideline 117), method [b] neutral range pH 7.8. The settings on record: for chromatographic logP: reversed-phase (RP) C18 HPLC column. Type of data set: physicochemical. Here is the method: as §1

Regarding “5-(Ethylsulphanyl)-4-methyl-2-[2-(pyridin-3-yl)-1,3-benzothiazol-6-yl]-2,4-dihydro-33H-1,2,4-triazol-3-one [compound 52]”, in data set [1], the “logP[a]” value came to 2.84. Also, the “logP[b]” value in data set [2] was 2.97. The chromatographic logP is a lipophilicity value derived from retention on a column. A low value points to lower lipophilicity. Take `Ic1ccc2nc(-c3cccnc3)sc2c1` [I-a-2, 6-Iodo-2-(pyridin-3-yl)-1,3-benzothiazole]: the chromatographic logP in data set [1] stood at 3.37; in data set [2], 3.39. Regarding `CC1(C)OB(c2ccc3nc(-c4cccnc4)sc3c2)OC1(C)C` [I-h-1, 2-(Pyridin-3-yl)-6-(4,4,5,5-tetramethyl-1,3,2-dioxaborolan-2-yl)-1,3-benzothiazole], the chromatographic logP was 4.03 in data set [1] and 4.14 in data set [2]. Consider `c1ccc(-c2ccc3nc(-c4cccnc4)sc3c2)cc1` [compound 1], for which the “logP[a]” value in data set [1] was determined as 3.7. Moreover, the “logP[b]” value in data set [2] was 3.87. As for `Fc1ccccc1-c1ccc2nc(-c3cccnc3)sc2c1` [compound 5], the “logP[a]” value in data set [1] is on record as 3.7. In addition, the “logP[b]” value in data set [2] was found to be 3.78. Regarding `Clc1ccccc1-c1ccc2nc(-c3cccnc3)sc2c1` [compound 6], the “logP[a]” value in data set [1] turned out to be 4.05. Further, the “logP[b]” value in data set [2] came to 4.2. In the same order, the values of `c1cncc(-c2nc3ccc(NCC4CC4)cc3s2)c1` [compound 14] are 2.5 and 2.94. Regarding `c1cncc(-c2nc3ccc(N4CCOCC4)cc3s2)c1` [compound 15, 6-(Morpholin-4-yl)-2-(pyridin-3-yl)-1,3-benzothiazole], the figures for the chromatographic logP in data set [1] and in data set [2] were 2 and 2.14, respectively.

For the molecule `c1ccc(CNc2ccc3nc(-c4cccnc4)sc3c2)cc1` [compound 16], the “logP[a]” value in data set [1] is on record as 2.91. In addition, the “logP[b]” value in data set [2] amounted to 3.12. For `CC(Nc1ccc2nc(-c3cccnc3)sc2c1)c1ccccc1` (centres unmarked) [compound 17], the figures for the chromatographic logP in data set [1] and in data set [2] were 3.23 and 3.33, respectively. Regarding `Cc1cc(C)c([S+]([O-])CC(F)(F)F)cc1Nc1ccc2nc(-c3cccnc3)sc2c1` (centres unmarked) [compound 19, N-{2,4-Dimethyl-5-[(2,2,2-trifluoroethyl)sulphinyl]phenyl}-2-(pyridin-3-yl)-1,3-benzothiazol-6-amine], the chromatographic logP in data set [2] is 3.07. `Cc1cc(F)c(Nc2ccc3nc(-c4cccnc4)sc3c2)cc1[S+]([O-])CC(F)(F)F` (centres unmarked) [compound 21, N-{2-Fluoro-4-methyl-5-[(2,2,2-trifluoroethyl)sulphinyl]phenyl}-2-(pyridin-3-yl)-1,3-benzothiazol-6-amine]: the chromatographic logP is 2.85 in data set [1] and 2.9 in data set [2]. Consider `CCSc1ccccc1Nc1ccc2nc(-c3cccnc3)sc2c1` [compound 22], for which the “logP[a]” value in data set [1] is 4.32. The “logP[b]” value in data set [2] was 4.44. `CC[S+]([O-])c1ccccc1Nc1ccc2nc(-c3cccnc3)sc2c1` (centres unmarked) [compound 23]: the “logP[a]” value in data set [1] stood at 2.25. The “logP[b]” value in data set [2] was determined as 2.24. In the case of `c1ccc(Nc2ccc3nc(-c4cccnc4)sc3c2)nc1` [compound 24, N-(Pyridin-2-yl)-2-(pyridin-3-yl)-1,3-benzothiazol-6-amine], the figures for the chromatographic logP in data set [1] and in data set [2] were 1.04 and 2.47, respectively. With `c1cncc(-c2nc3ccc(-n4cccn4)cc3s2)c1` [compound 26], in data set [2], the “logP[b]” value came to 2.2. In turn, `c1cncc(-c2nc3ccc(-n4cncn4)cc3s2)c1` [compound 31, 2-(Pyridin-3-yl)-6-(1H-1,2,4-triazol-1-yl)-1,3-benzothiazole] had a chromatographic logP in data set [2] of 1.63.

For the molecule `Cn1ccc(-c2ccc3nc(-c4cccnc4)sc3c2)n1` [compound 36], in data set [1], the “logP[a]” value is given as 2.05. Further, the “logP[b]” value in data set [2] is recorded as 2.03.

With `CSCn1cc(-c2ccc3nc(-c4cccnc4)sc3c2)cn1` [compound 38, 6-{1-[(Methylsulphanyl)methyl]-1H-pyrazol-4-yl}-2-(pyridin-3-yl)-1,3-benzothiazole], the chromatographic logP stood at 2.4 in data set [1] and 2.54 in data set [2]. In the case of `Cn1cncc(-c2ccc3nc(-c4cccnc4)sc3c2)c1=O` [compound 43], in data set [1], the “logP[a]” value turned out to be 1.34. Also, in data set [2], the “logP[b]” value was found to be 1.51.

As for `Cn1c(OCC(F)(F)F)nn(-c2ccc3nc(-c4cccnc4)sc3c2)c1=O` [compound 53], the “logP[a]” value in data set [1] worked out at 2.8. In addition, the “logP[b]” value in data set [2] amounted to 2.88. For the molecule `Cn1c(SCC(F)(F)F)nn(-c2ccc3nc(-c4cccnc4)sc3c2)c1=O` [compound 54], in data set [1], the “logP[a]” value came to 2.84. Also, the “logP[b]” value in data set [2] is listed as 2.91.

In the case of `CSCc1nn(-c2ccc3nc(-c4cccnc4)sc3c2)c(=O)n1C` [compound 55, 4-Methyl-5-[(methylsulphanyl)methyl]-2-[2-(pyridin-3-yl)-1,3-benzothiazol-6-yl]-2,4-dihydro-3H-1,2,4-triazol-3-one], the chromatographic logP in data set [1] came out at 2.23; in data set [2], 2.36.

For `O=C(NCC(F)(F)F)c1ccc2nc(-c3cccnc3)sc2c1` [compound 63], the “logP[a]” value in data set [1] was 2.02.

With `O=C(Nc1cccc(SC(F)(F)F)c1)c1ccc2nc(-c3cccnc3)sc2c1` [compound 73], in data set [1], the “logP[a]” value was determined as 3.76. Turning to `O=C(Nc1cccc(SC(F)(F)F)c1)c1ccc2nc(-c3cncc(F)c3)sc2c1` [compound 74, 2-(5-Fluoropyridin-3-yl)-N-{3-[(trifluoromethyl)sulphanyl]phenyl}-1,3-benzothiazole-6-carboxamide], the chromatographic logP in data set [1] is 4.29. For `O=C(Nc1cccc([S+]([O-])C(F)(F)F)c1)c1ccc2nc(-c3cncc(F)c3)sc2c1` (centres unmarked) [compound 75, 2-(5-Fluoropyridin-3-yl)-N-{3-[(trifluoromethyl)sulphinyl]phenyl}-1,3-benzothiazole-6-carboxamide], the chromatographic logP in data set [1] was found to be 3.26.

As to `CCC(=O)N(C)c1ccc2nc(-c3cccnc3)sc2c1` [compound 76, N-Methyl-N-[2-(pyridin-3-yl)-1,3-benzothiazol-6-yl]propanamide], the chromatographic logP in data set [1] came to 1.84. As to `CN(C(=O)C1CCS(=O)(=O)C1)c1ccc2nc(-c3cncc(F)c3)sc2c1` (centres unmarked) [compound 83], the “logP[a]” value in data set [1] is reported as 1.94.

As to `CN(C(=O)c1cccc(SC(F)(F)F)c1)c1ccc2nc(-c3cccnc3)sc2c1` [compound 84], in data set [1], the “logP[a]” value is 3.24.

`CN(C(=O)c1cccc(SC(F)(F)F)c1)c1ccc2nc(-c3cncc(F)c3)sc2c1` [compound 85, N-[2-(5-Fluoropyridin-3-yl)-1,3-benzothiazol-6-yl]-N-methyl-3-[(trifluoromethyl)sulphanyl]benzamide] gave a chromatographic logP in data set [1] of 3.88. In the case of `O=C(Nc1ccc2nc(-c3cccnc3)sc2c1)c1cccc([S+]([O-])C(F)(F)F)c1` (centres unmarked) [compound 86], in data set [1], the “logP[a]” value is listed as 2.63. In the case of `O=C(Nc1ccc2nc(-c3cncc(F)c3)sc2c1)c1cccc([S+]([O-])C(F)(F)F)c1` (centres unmarked) [compound 87, N-[2-(5-Fluoropyridin-3-yl)-1,3-benzothiazol-6-yl]-3-[(trifluoromethyl)sulphinyl]benzamide], in data set [1], the chromatographic logP was found to be 3.27.
